Assays:
Type in all cases: cell-based
[1] = biological target: T1, rat vas deferens P2X receptor (Rattus norvegicus, UniProt P47824); experiment: electrophysiological recording in CHO cells stably transfected with rat vas deferens P2X receptor; details: up to 30 μM
T1 construct: cRNA in Xenopus oocytes; stably transfected CHO cells
T1 sequence (P47824 1-399): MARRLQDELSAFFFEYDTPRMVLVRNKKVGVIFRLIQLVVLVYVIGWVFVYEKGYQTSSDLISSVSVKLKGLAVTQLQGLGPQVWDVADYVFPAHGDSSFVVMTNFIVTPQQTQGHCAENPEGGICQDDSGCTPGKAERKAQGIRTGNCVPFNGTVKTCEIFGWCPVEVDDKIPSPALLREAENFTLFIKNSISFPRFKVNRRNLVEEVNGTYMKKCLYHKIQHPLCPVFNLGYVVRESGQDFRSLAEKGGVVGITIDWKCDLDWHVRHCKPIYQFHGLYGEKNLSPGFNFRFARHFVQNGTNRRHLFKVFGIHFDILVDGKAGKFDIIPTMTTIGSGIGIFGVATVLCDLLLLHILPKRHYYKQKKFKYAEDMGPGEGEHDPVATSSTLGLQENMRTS
From the text: CHO cells were stably transfected by a method used for other ion channels (Claudio, Meth. Enzymol. 207 391-408 (1992)). Transfection was confirmed by a) electro-physiological recording and b) radioligand binding. […] [^3 H]αβmethyleneATP binding was more than 600 cpm per million transfected cells with less than 80 cpm nonspecific binding.

[2] = biological target: T2, rat superior cervical ganglion P2X receptor (clone 3) (Rattus norvegicus, UniProt P51577); experiment: functional properties of cloned P2X receptors (electrical recordings): clone 3
T2 construct: The insert appeared to be a full length cDNA; expressed in transfected cells; host or cells: HEK293 cells transfected with pcDNA3 construct p464 (also oocytes injected with in vitro transcribed RNA)
T2 sequence (P51577 1-388): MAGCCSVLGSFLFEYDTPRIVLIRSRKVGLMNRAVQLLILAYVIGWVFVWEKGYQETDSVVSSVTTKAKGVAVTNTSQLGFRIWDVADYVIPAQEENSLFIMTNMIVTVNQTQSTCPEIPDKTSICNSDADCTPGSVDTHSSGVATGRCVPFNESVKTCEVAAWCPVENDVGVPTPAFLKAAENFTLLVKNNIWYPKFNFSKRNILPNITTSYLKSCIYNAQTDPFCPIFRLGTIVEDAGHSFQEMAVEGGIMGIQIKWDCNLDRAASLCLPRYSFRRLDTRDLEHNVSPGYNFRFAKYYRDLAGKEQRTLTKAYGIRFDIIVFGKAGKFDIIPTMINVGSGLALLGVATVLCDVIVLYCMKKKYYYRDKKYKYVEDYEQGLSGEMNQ

[3] = biological target: T3, PC12 P2X receptor (Rattus norvegicus, UniProt P49653); experiment: functional properties of cloned P2X receptors (electrical recordings): PC12
T3 construct: host or cells: HEK293 cells (oocytes are also named for the functional characterisation of clone 3)
T3 sequence (P49653 1-472): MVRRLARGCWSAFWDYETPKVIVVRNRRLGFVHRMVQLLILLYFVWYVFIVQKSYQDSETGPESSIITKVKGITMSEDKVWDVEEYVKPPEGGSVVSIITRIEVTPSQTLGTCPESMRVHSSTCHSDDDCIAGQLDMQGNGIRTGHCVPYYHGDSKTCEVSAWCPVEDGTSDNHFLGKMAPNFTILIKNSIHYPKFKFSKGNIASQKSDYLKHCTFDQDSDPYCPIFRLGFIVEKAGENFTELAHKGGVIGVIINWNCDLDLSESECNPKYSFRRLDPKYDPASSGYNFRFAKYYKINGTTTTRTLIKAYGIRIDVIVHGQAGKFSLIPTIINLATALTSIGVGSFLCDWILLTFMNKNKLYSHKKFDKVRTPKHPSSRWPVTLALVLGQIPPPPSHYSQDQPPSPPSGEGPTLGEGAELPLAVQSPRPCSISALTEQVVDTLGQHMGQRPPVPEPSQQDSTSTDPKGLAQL

Nc1ncnc2c1ncn2[C@@H]1O[C@H](COP(=O)([O-])OP(=O)([O-])OP(=O)([O-])[O-])[C@@H](O)[C@H]1O.[Mg+2].[Mg+2] [ATP, adenosine 5'-triphosphate magnesium salt]
rapidly desensitising inward currents, CHO cells responding [1]: rapidly desensitising inward currents in 14 of 14 CHO cells
EC50 [2]: 11 µM
decline of currents (desensitisation) during application ([2]; applications of several seconds): little or no decline during applications of several seconds
EC50 [3]: 8 µM

Source: patent US5985603A, “P2x receptor DNA and protein sequence” (Glaxo Group Limited, priority 1994, dated 1999)
